Tested on: EGFR kinases (all the variants tested)
Experiment: In vitro binding assay (ATP beads), all variant EGFR kinases
Details: at a concentration of 1000 μM

SMILES: Nc1ncnc2c1ncn2[C@@H]1O[C@H](COP(=O)(O)OP(=O)(O)OP(=O)(O)O)[C@@H](O)[C@H]1O [ATP]
- binding of exogenous ATP to EGFR kinases: weakly bound

— publication PMC4474554 (PLoS ONE, 2015)
